Data published in PubChem BioAssay AID977613 (Broad Institute, 2014).
Calls of active or inactive are those of the source. How the calls were made is not given here.

test system: Broad 7084-01 inhibitor HTS, set 2; experiment: inhibitors in Broad screen 7084-01, set 2 (AID 977613);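 further: host cells are infected with parasite promastigotes that become internalized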

Compound | active concentration
O=C(NC1CCCC1)N1CCCCN2[C@H](C1)[C@@H](c1ccc(-c3cccnc3)cc1)[C@@H]2CO | > 10 µM (inactive)
CC1C=NC(S(=O)(=O)N2CC[C@@H]3[C@H](CO)N(C)c4ccc(-c5ccccc5F)cc4[C@@H]32)=N1 (stereo not given in full) | > 10 µM (inactive)
C[C@@H](NC(=O)[C@@H]1[C@@H](CO)[C@@H]2Cn3c(ccc(-c4ccncc4)c3=O)[C@@H]2N1C)c1ccccc1 | > 10 µM (inactive)
COCC(=O)N1[C@H](CO)[C@H](c2ccccc2-c2ccc(C)cc2)[C@@H]1C#N | > 10 µM (inactive)
O=C([C@@H]1[C@@H](CO)[C@@H]2Cn3c(ccc(C4=CCCC4)c3=O)[C@H]1N2C(=O)c1ccncc1)N1CCOCC1 | > 10 µM (inactive)
O=C(Nc1ccc(F)cc1)N1CC(=O)N2[C@H](CO)[C@H](c3ccc(C#Cc4cccnc4)cc3)[C@@H]2C1 | > 10 µM (inactive)
COc1cccc(NC(=O)N2C[C@@H](O)COC[C@H]3O[C@H](CC(=O)NC4CCC4)CC[C@@H]32)c1 | > 10 µM (inactive)
COc1ccc2c3c([nH]c2c1)[C@@H](CO)NCC31CN(Cc2cc(F)ccc2F)C1 | > 10 µM (inactive)
CS(=O)(=O)N1C[C@H](O)COC[C@@H]2O[C@H](CC(=O)NCc3ccc(-c4ccccc4)cc3)CC[C@H]21 | > 10 µM (inactive)
COc1ccc(CN2[C@@H]3CNc4ccccc4[C@@H]3[C@@H]2CO)cc1 | > 10 µM (inactive)
COc1ccc(-c2ccccc2[C@@H]2[C@@H](CO)N(C(=O)NC(C)C)[C@H]2C#N)cc1 | > 10 µM (inactive)
CS(=O)(=O)N1[C@H](CO)[C@@H](c2ccccc2)C12CN(Cc1ccccn1)C2 | > 10 µM (inactive)
COc1ccccc1NC(=O)N1CC(=O)N2[C@H](CO)[C@@H](c3ccc(-c4cccc(C)c4)cc3)[C@@H]2C1 | > 10 µM (inactive)
O=C(C[C@@H]1CC[C@H]2[C@@H](COC[C@H](O)CN2Cc2nccs2)O1)NCc1ccccc1 | > 10 µM (inactive)
CC(=O)N1[C@H](CO)[C@@H](c2ccccc2)C12CN(C(=O)Cc1ccccc1)C2 | > 10 µM (inactive)
CC(C)NC(=O)Nc1ccc2c(c1)C(=O)N(C)[C@H]1CC[C@H](CC(=O)NCc3ccc(F)cc3)O[C@H]1CO2 | > 10 µM (inactive)
CN1CCN(C(=O)C[C@H]2CC[C@H]3[C@@H](COC[C@@H](O)CN3C(=O)C3CC3)O2)CC1 | > 10 µM (inactive)
Cn1cnc(CCNC(=O)C[C@@H]2CC[C@@H]3[C@H](COC[C@@H](O)CN3C(=O)C3CC3)O2)c1 | > 10 µM (inactive)
O=C(c1cccnc1)N1C[C@H]2[C@@H](c3ccccc31)[C@H](CO)N2C(=O)CN1CCOCC1 | < 10 µM
O=C(Nc1ccccc1)N1C[C@@H]2[C@H](c3ccccc31)[C@H](CO)N2Cc1ccccc1Cl | > 10 µM (inactive)
CCCNC(=O)N1[C@H](CO)[C@H](c2ccccc2-c2ccccc2F)[C@@H]1C#N | > 10 µM (inactive)
O=S(=O)(c1ccccc1)N1CCCCN2[C@@H](CO)[C@H](c3ccc(C#CC4CCCC4)cc3)[C@@H]2C1 | > 10 µM (inactive)
O=C1CNC[C@H]2[C@H](c3ccc(C4=CCCC4)cc3)[C@H](CO)N12 | > 10 µM (inactive)
COc1ccc2c3c(n(C)c2c1)[C@@H](CO)N(C)CC31CN(CC2CC2)C1 | > 10 µM (inactive)
Cc1ccccc1-c1ccc([C@H]2[C@H](CO)N3C(=O)CN(C(=O)Nc4cccc(F)c4)C[C@@H]23)cc1 | > 10 µM (inactive)

Compound | active concentration
O=C(C[C@H]1CC[C@@H]2[C@H](COC[C@H](O)CN2Cc2cccc(F)c2)O1)NCc1cccc(F)c1 | > 10 µM (inactive)
CN1C(=O)c2cc(NC(=O)Cc3cccs3)ccc2OC[C@H]2O[C@H](CC(=O)N[C@H]3CCN(Cc4ccccc4)C3)CC[C@H]21 | > 10 µM (inactive)
O=S(=O)(c1cccs1)N1CCCCN2[C@H](CO)[C@@H](c3ccc(/C=C/c4ccccc4)cc3)[C@@H]2C1 | > 10 µM (inactive)
Cc1cccc(S(=O)(=O)N2CC[C@@H]3[C@H]2c2cc(-c4ccccc4F)ccc2N(C)[C@H]3CO)c1 | > 10 µM (inactive)
O=C(C[C@@H]1CC[C@@H]2[C@H](COC[C@H](O)CN2C(=O)Nc2ccc(Cl)cc2)O1)NCC1CC1 | > 10 µM (inactive)
O=C(C[C@@H]1CC[C@H]2[C@@H](COC[C@@H](O)CN2S(=O)(=O)c2ccc(F)cc2)O1)NCC1CC1 | > 10 µM (inactive)
COc1ccccc1CN1[C@H](CO)[C@H]2c3ccccc3N(C(=O)C3CCCCC3)C[C@H]21 | > 10 µM (inactive)
COc1cccc(C(=O)Nc2ccc3c(c2)C(=O)N(C)[C@H]2CC[C@@H](CC(=O)NCCCN4CCOCC4)O[C@H]2CO3)c1 | > 10 µM (inactive)
COc1ccc2c3c([nH]c2c1)[C@@H](CO)N(S(C)(=O)=O)CC31CCN(C(=O)Nc2ccccc2)CC1 | > 10 µM (inactive)
CN1CCCCN2[C@H](C1)[C@H](c1ccc(-c3ccc(F)cc3)cc1)[C@@H]2CO | > 10 µM (inactive)
O=C(C[C@H]1CC[C@@H]2[C@H](COC[C@H](O)CN2Cc2cc(F)ccc2F)O1)NCc1ccc(F)cc1 | > 10 µM (inactive)
O=C(C[C@H]1CC[C@H]2[C@@H](COC[C@H](O)CN2C(=O)c2ccncc2)O1)NCc1ccc(-c2ccccc2)cc1 | > 10 µM (inactive)
COc1ccccc1-c1ccccc1[C@H]1[C@H](C#N)N(C(=O)CN(C)C)[C@H]1CO | > 10 µM (inactive)
CC(C)NC(=O)N1CC2(C1)[C@H](c1ccccc1)[C@@H](CO)N2C(=O)C1CCCC1 | > 10 µM (inactive)
COc1ccc(-c2ccccc2[C@H]2[C@@H](C#N)N(C(=O)NC3CCCCC3)[C@H]2CO)cc1 | > 10 µM (inactive)
COc1cccc(C(=O)Nc2ccc3c(c2)C(=O)N(C)[C@@H]2CC[C@H](CC(=O)NCCCN4CCOCC4)O[C@H]2CO3)c1 | > 10 µM (inactive)
COc1cccc(S(=O)(=O)N2CCCCN3[C@H](C2)[C@@H](c2ccc(C#CCC(C)C)cc2)[C@@H]3CO)c1 | > 10 µM (inactive)
C/C=C/c1ccc([C@@H]2[C@@H](CO)N3CCCCN(S(=O)(=O)c4ccc(OC)cc4)C[C@H]23)cc1 | > 10 µM (inactive)
C/C=C/c1ccc([C@@H]2[C@@H](CO)N(C(=O)C3CCOCC3)C23CN(C(=O)NC(C)C)C3)cc1 | > 10 µM (inactive)
O=C(C1CCCCC1)N1CC(=O)N2[C@@H](CO)[C@@H](c3ccc(-c4ccccc4F)cc3)[C@@H]2C1 | > 10 µM (inactive)
O=C(C[C@H]1CC[C@H]2[C@@H](COC[C@H](O)CN2S(=O)(=O)c2ccc(F)cc2)O1)NCC1CC1 | > 10 µM (inactive)
Cc1ccccc1-c1ccc([C@@H]2[C@@H](CO)N3C(=O)CN(S(C)(=O)=O)C[C@H]23)cc1 | > 10 µM (inactive)
Cc1ccccc1S(=O)(=O)N1CC[C@@H]2[C@@H](CO)N(C)c3ccc(-c4cccc(C#N)c4)cc3[C@@H]21 | > 10 µM (inactive)
COc1cccc(-c2ccc([C@H]3[C@@H](CO)N4C(=O)CN(C(=O)c5cccnc5)C[C@@H]34)cc2)c1 | > 10 µM (inactive)
COc1ccc2c3c([nH]c2c1)[C@@H](CO)N(C(=O)Nc1c(C)noc1C)CC31CN(CC2CCOCC2)C1 | > 10 µM (inactive)
